Drawing on US20050009840A1 (SUGEN, INC., priority 2003, published 2005), this text covers inhibition and Ki for 47 compounds.

By inhibition is commonly meant the percentage by which the read-out fell short of the control. What is called Ki is a dissociation constant, usually derived from enzyme kinetics or from competition with a known ligand.

Read-outs that look alike come from different tables or passages of the source.

This test has as its target T1, HGFR (Homo sapiens, UniProt P08581).
T1 construct: purchased Upstate 14-526
Put plainly: HGFR continuous-coupled spectrophotometric assay. The test is classed as biochemical. As to conditions: for inhibition at 1 pM / inhibition at 1 µM: read-out: % Inhibition (percent c-MET inhibition); for inhibition at 0.05 µM: at 50 nM, Table 5, library procedure 40, read-out: % inhibition (percent c-MET inhibition); for inhibition at 1 µM: Table 8, library procedure 43.

Where [1] appears, read: Table 3, column 'Ki (μM) or I (%)': cells without % sign, read-out: Ki.

T1 sequence (P08581 974-1390 limits assumed): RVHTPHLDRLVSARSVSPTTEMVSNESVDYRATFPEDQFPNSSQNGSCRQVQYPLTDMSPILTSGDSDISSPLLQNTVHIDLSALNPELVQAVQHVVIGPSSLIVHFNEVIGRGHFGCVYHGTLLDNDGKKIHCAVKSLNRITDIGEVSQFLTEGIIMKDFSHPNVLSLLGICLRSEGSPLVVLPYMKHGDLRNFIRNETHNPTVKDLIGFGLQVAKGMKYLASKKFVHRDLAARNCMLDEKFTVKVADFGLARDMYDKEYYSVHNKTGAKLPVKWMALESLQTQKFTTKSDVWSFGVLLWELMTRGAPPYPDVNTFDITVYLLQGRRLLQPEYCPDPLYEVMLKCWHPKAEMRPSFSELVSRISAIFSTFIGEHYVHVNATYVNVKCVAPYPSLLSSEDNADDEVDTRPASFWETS

Take `Nc1ncc(C(=O)N2CCCC(O)C2)cc1OCc1c(Cl)cccc1Cl` [Example L-236]: the inhibition at 1 pM (Table 6, library procedure 41) stood at 33%.

`Cn1nc(C2CC2)nc1COc1cc(-c2ccc(C(=O)N3CCC(N4CCCC4)CC3)cc2)cnc1N`: under “Table 7, library procedure 42”, the inhibition at 1 pM amounted to 5%.

Take `Nc1ncc(C(=O)NC2CCCNC2=O)cc1OCc1c(Cl)cccc1Cl` [Example L-293]: the inhibition at 1 pM (Table 6, library procedure 41) was 16%.

With `Cc1ccc(-c2nnc(COc3cc(-c4ccc(C(=O)N5CCC(N6CCCC6)CC5)cc4)cnc3N)o2)cc1`, where the note is “Table 7, library procedure 42”, the inhibition at 1 pM worked out at 18%.

Take `Nc1ncc(-c2ccc(C(=O)N3CCC(N4CCCC4)CC3)cc2)cc1OCc1ccc(F)cc1F`: the inhibition at 1 pM (Table 7, library procedure 42) amounted to 18%.

`CC(Oc1cc(-c2ccc(C(=O)NC3CNC3)cc2)cnc1N)c1c(Cl)ccc(F)c1Cl` (centres unmarked) [Example I-609, 4-{6-Amino-5-[1-(2,6-dichloro-3-fluoro-phenyl)-ethoxy]-pyridin-3-yl}-N-azetidin-3-yl-benzamide]: under setting [1], the Ki came to 0.045 µM.

`Cc1ccc2nc(CNC(=O)c3cnc(N)c(OCc4c(Cl)cccc4Cl)c3)cn2c1` [Example L-347]: the inhibition at 1 pM (Table 6, library procedure 41) came out at 38%.

In the case of `Nc1ncc(-c2ccc(C(=O)N3CCC(N4CCCC4)CC3)cc2)cc1OCc1cccc(Cl)c1Cl`, the inhibition at 1 pM (Table 7, library procedure 42) amounted to 40%.

Regarding `CC(Oc1cc(-c2ccc(C(=O)NCC3CCOCC3)cc2)cnc1N)c1c(Cl)ccc(F)c1Cl` [Example L-173], the inhibition at 0.05 µM was determined as 63%.

On to `Nc1ncc(C(=O)NCc2ccc(S(N)(=O)=O)cc2)cc1OCc1c(Cl)cccc1Cl` [Example L-178], for which the inhibition at 1 pM (Table 6, library procedure 41) was 30%.

For `Nc1ncc(-c2ccc(C(=O)N3CCC(N4CCCC4)CC3)cc2)cc1OCc1ccc(F)c(F)c1`, under “Table 7, library procedure 42”, the inhibition at 1 pM is 19%.

Regarding `CN(C)c1ccc(NC(=O)c2cccc(COc3cc(-c4ccc(C(=O)N5CCC(N6CCCC6)CC5)cc4)cnc3N)c2)cc1`, the inhibition at 1 pM (Table 7, library procedure 42) was determined as 23%.

Consider `Nc1ncc(C(=O)NC2COC3(CCN(Cc4ccncc4)CC3)C2)cc1OCc1c(Cl)cccc1Cl` [Example L-336], for which the inhibition at 1 pM (Table 6, library procedure 41) was found to be 20%.

Turning to `C[C@@H]1CN(C(=O)c2cnc(N)c(OCc3c(Cl)cccc3Cl)c2)C[C@H](C)O1` [Example L-243], the inhibition at 1 pM (Table 6, library procedure 41) is 32%.

Regarding `CC1CN(C(=O)c2ccc(-c3cnc(N)c(OCc4cc(F)ccc4C(F)(F)F)c3)cc2)CC(C)N1` (centres unmarked), the inhibition at 1 µM was 17%.

In the case of `CCOCCNC(=O)c1ccc(-c2cnc(N)c(OC(C)c3c(Cl)ccc(F)c3Cl)c2)cc1` [Example L-120], the inhibition at 0.05 µM was determined as 63%.

Take `Cc1cc(COc2cc(-c3ccc(C(=O)N4CC(C)NC(C)C4)cc3)cnc2N)nc(-c2ccc(C(F)(F)F)cn2)n1` (centres unmarked): the inhibition at 1 µM was found to be 7%.

For `CC(Oc1cc(-c2cnn(CCN3CCCC3)c2)cnc1N)c1c(Cl)ccc(F)c1Cl` (centres unmarked) [Example I-465, 3-[1-(2,6-Dichloro-3-fluoro-phenyl)-ethoxy]-5-[1-(2-pyrrolidin-1-yl-ethyl)-1H-pyrazol-4-yl]-pyridin-2-ylamine], the Ki (cells prefixed Ki, read-out: Met Ki) worked out at 0.34 µM.

On to `CCCCc1nc(COc2cc(-c3ccc(C(=O)N4CCC(N5CCCC5)CC4)cc3)cnc2N)c[nH]1`, for which, under “Table 7, library procedure 42”, the inhibition at 1 pM came to 16%.

With `Cc1ccc(COc2cc(-c3ccc(C(=O)N4CCC(N5CCCC5)CC4)cc3)cnc2N)c(F)c1F`, where the note is “Table 7, library procedure 42”, the inhibition at 1 pM stood at 39%.

As for `Nc1ncc(-c2ccc(C(=O)N3CCC(N4CCCC4)CC3)cc2)cc1OCc1ccc2ccccc2c1Br`, the inhibition at 1 pM (Table 7, library procedure 42) worked out at 59%.

On to `CC(C)NC(=O)c1ccc(-c2noc(COc3cc(-c4ccc(C(=O)N5CCC(N6CCCC6)CC5)cc4)cnc3N)n2)cc1`, for which, for the setting “Table 7, library procedure 42”, the inhibition at 1 pM is 18%.

For the compound `COc1ccc(OC)c(COc2cc(-c3ccc(C(=O)N4CCC(N5CCCC5)CC4)cc3)cnc2N)c1`, the inhibition at 1 pM (Table 7, library procedure 42) came to 19%.

As for `CC(Oc1cc(-c2ccc(C(=O)NC3(CO)CCCC3)cc2)cnc1N)c1c(Cl)ccc(F)c1Cl` [Example L-81], the inhibition at 0.05 µM was 67%.

`Nc1ncc(C(=O)NCc2noc(C(=O)N3CC[C@H](O)C3)n2)cc1OCc1c(Cl)cccc1Cl` [Example L-327]: the inhibition at 1 pM (Table 6, library procedure 41) is 26%.

Regarding `Nc1ncc(C(=O)NCc2ccc(C(F)(F)F)nc2)cc1OCc1c(Cl)cccc1Cl` [Example L-265], the inhibition at 1 pM (Table 6, library procedure 41) was 17%.

As to `COc1ccc(C(CCO)NC(=O)c2cnc(N)c(OCc3c(Cl)cccc3Cl)c2)cc1` [Example L-306], the inhibition at 1 pM (Table 6, library procedure 41) was 22%.

For `CC1CN(C(=O)c2ccc(-c3cnc(N)c(OCc4cccc(C(=O)NCCc5ccccn5)c4)c3)cc2)CC(C)N1` (centres unmarked), the inhibition at 1 µM turned out to be 18%.

As for `Nc1ncc(C(=O)NC[C@H]2CCCC[C@H]2O)cc1OCc1c(Cl)cccc1Cl` [Example L-228], the inhibition at 1 pM (Table 6, library procedure 41) was 24%.

Turning to `CC1CN(C(=O)c2ccc(-c3cnc(N)c(OCc4ccc(S(=O)(=O)c5ccc(F)cc5)cc4)c3)cc2)CC(C)N1` (centres unmarked), the inhibition at 1 µM amounted to 13%.

For the compound `CC(Oc1cc(-c2ccc(C(=O)NCCCN3CCN(C)CC3)cc2)cnc1N)c1c(Cl)ccc(F)c1Cl` [Example L-3], the inhibition at 0.05 µM was 63%.

With `Nc1ncc(C(=O)NCc2ccc(F)cc2)cc1OCc1c(Cl)cccc1Cl` [Example L-220], the inhibition at 1 pM (Table 6, library procedure 41) came out at 32%.

On to `CC1CN(C(=O)c2ccc(-c3cnc(N)c(OCc4ccc(C(=O)NCc5cccnc5)cc4)c3)cc2)CC(C)N1` (centres unmarked), for which the inhibition at 1 µM came to 8%.

Consider `CC(Oc1cc(-c2ccc(C(=O)NC3CCOCC3)cc2)cnc1N)c1c(Cl)ccc(F)c1Cl` [Example L-156], for which the inhibition at 0.05 µM amounted to 73%.

For the compound `Cc1nc(COc2cc(-c3ccc(C(=O)N4CCC(N5CCCC5)CC4)cc3)cnc2N)n(C)n1`, the inhibition at 1 pM (Table 7, library procedure 42) stood at 14%.

For the compound `Cn1nc(C(F)(F)F)c2cc(COc3cc(-c4ccc(C(=O)N5CCC(N6CCCC6)CC5)cc4)cnc3N)sc21`, the inhibition at 1 pM (Table 7, library procedure 42) was 14%.

For `Nc1ncc(C(=O)N2CCN(CC(=O)N3CCCC3)CC2)cc1OCc1c(Cl)cccc1Cl` [Example L-206], the inhibition at 1 pM (Table 6, library procedure 41) came out at 32%.

Turning to `CC(Oc1cc(-c2ccc(C(=O)NCCCN3CCCC3=O)cc2)cnc1N)c1c(Cl)ccc(F)c1Cl` [Example L-60], the inhibition at 0.05 µM came to 83%.

With `Cc1cc(C(=O)N2C[C@@H](C)N[C@@H](C)C2)ccc1-c1cnc(N)c(OC(C)c2c(Cl)ccc(F)c2Cl)c1` (some centres unmarked) [Example I-553, (4-{6-Amino-5-[1-(2,6-dichloro-3-fluoro-phenyl)-ethoxy]-pyridin-3-yl)-3-methyl-phenyl)-(dimethyl-piperazin-1-yl)-methanone], under setting [1], the Ki worked out at 0.259 µM.

Take `CC(Oc1cc(-c2ccc(C(=O)NCCc3cccnc3)cc2)cnc1N)c1c(Cl)ccc(F)c1Cl` [Example L-133]: the inhibition at 0.05 µM was determined as 68%.

For the compound `CC(C)NC(=O)c1ccc(-c2cnc(N)c(OC(C)c3c(Cl)ccc(F)c3Cl)c2)cc1` [Example L-110], the inhibition at 0.05 µM was found to be 71%.

On to `CC1CN(C(=O)c2ccc(-c3cnc(N)c(OCc4cccc(Cl)c4F)c3)cc2)CC(C)N1` (centres unmarked), for which the inhibition at 1 µM worked out at 28%.

`CC(Oc1cc(-c2ccc(C(=O)N3CCCN(C)CC3)cc2)cnc1N)c1c(Cl)ccc(F)c1Cl` [Example L-39]: the inhibition at 0.05 µM came to 77%.

Consider `CC1CN(C(=O)c2ccc(-c3cnc(N)c(OCc4cccc(F)c4F)c3)cc2)CC(C)N1` (centres unmarked), for which the inhibition at 1 µM was determined as 19%.

As to `Nc1ncc(-c2ccc(C(=O)N3CCC(N4CCCC4)CC3)cc2)cc1OCc1nc(NCCO)c2ccccc2n1`, under “Table 7, library procedure 42”, the inhibition at 1 pM stood at 7%.

In the case of `NC(=O)N1CCN(C(=O)c2cnc(N)c(OCc3c(Cl)cccc3Cl)c2)CC1` [Example L-216], the inhibition at 1 pM (Table 6, library procedure 41) is 29%.

`CC(Oc1cc(-c2ccc(C(=O)NCC(F)(F)F)cc2)cnc1N)c1c(Cl)ccc(F)c1Cl` [Example L-58]: the inhibition at 0.05 µM is 78%.
